Experimental findings from patent publication US9255110B2 (Hoffmann-La Roche Inc., priority 2010, dated 2016) are described below.

Where a name gives a salt, the structure may show the parent alone.

Chain of IRAK-4 (Q9NWZ3 whole entry, species assumed): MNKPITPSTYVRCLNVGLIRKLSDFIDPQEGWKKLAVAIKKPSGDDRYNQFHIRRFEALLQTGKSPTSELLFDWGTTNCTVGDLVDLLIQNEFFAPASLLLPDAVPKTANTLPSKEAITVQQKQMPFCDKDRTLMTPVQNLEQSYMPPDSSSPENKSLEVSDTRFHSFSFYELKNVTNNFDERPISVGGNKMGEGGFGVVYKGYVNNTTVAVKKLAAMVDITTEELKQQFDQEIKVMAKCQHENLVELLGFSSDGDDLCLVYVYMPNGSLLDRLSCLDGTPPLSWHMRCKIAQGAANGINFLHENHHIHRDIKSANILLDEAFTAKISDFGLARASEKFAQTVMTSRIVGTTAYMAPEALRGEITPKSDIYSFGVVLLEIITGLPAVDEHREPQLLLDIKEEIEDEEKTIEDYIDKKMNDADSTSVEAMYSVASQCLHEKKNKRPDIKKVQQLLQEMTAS

For the first test, the target named is IRAK-1 (Homo sapiens (Human), UniProt P51617). Nature of the test: In vitro IRAK-1 kinase assay. Type of test: biochemical. The note with it: purified recombinant IRAK-1, 50 uM ATP, 33P peptide phosphorylation. The protocol: Purified recombinant IRAK-4 protein was incubated with 250 uM synthetic peptide ([…]) in 30 ul of kinase buffer including (20 mM MOPS pH7.2, 25 mM beta glycerol phosphate, 5 mM EGTA, 1 mM sodium orthovanadate, 1 mM DTT, 50 uM ATP, 20 mM MgCl2, 10 uCi γ-^33P, 0.1% BSA) for the indicated time. For purified recombinant IRAK-1 protein kinase assay, 50 uM ATP was used. A 25 ul aliquot of the reaction mixture was transferred on to p81 phosphocellulose squares (Upstate Biotechnology, Lake Placid, N.Y.). The assay squares were washed three times with 0.75% phosphoric acid and once with acetone. Enzyme activity was measured by determining the bound radioactivity by liquid scintillation counting.
Chain of IRAK-1 (P51617 whole entry, species assumed): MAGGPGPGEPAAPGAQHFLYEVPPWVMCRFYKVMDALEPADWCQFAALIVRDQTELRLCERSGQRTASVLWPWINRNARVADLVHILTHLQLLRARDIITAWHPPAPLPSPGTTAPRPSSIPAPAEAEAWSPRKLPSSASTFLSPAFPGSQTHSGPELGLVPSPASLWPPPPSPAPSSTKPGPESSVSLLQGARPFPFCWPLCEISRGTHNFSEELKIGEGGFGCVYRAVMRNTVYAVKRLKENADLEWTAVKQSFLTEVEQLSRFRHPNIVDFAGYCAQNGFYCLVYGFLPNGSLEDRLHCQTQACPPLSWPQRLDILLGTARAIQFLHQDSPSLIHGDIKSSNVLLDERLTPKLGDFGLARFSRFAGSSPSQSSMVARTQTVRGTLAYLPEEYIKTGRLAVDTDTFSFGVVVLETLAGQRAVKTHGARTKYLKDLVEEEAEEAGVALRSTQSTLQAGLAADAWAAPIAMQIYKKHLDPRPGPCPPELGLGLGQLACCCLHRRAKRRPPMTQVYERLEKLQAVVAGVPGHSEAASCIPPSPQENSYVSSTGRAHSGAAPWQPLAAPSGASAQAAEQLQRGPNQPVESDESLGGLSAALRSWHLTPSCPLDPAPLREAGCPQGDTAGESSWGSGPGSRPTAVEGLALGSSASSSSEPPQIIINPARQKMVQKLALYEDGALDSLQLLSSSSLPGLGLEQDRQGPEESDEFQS
Turning to `COc1cc2ncccc2cc1NC(=O)c1csc2cnc(N(C)CCO)nc12` [Example 24], the half-inhibitory concentration (IC50) (as a rule, the point on the concentration scale where inhibition reaches its midpoint) came to 300 nM.
Consider `O=C(Nc1cc2cccnc2cc1O[C@@H]1CC[C@@H](O)C1)c1csc2cncnc12` (stereo in doubt) [hydrochloride], for which the IC50 stood at 246 nM.
The same measure, in the same setting: with `O=C(Nc1cc(Cl)ccc1O[C@H]1CC[C@H](O)CC1)c1csc2cncnc12` [Example 81, Thieno[3,2-d]pyrimidine-7-carboxylic acid [5-chloro-2-(4-hydroxy-cyclohexyloxy)-phenyl]-amide] the figure was 600 nM.
For the molecule `O=C(Nc1cc2cccnc2cc1O[C@H]1CC[C@H](O)CC1)c1csc2cncnc12`, the IC50 was determined as 168 nM.
Turning to `O=C(Nc1cc(Cl)ccc1O[C@H]1CC[C@@H](O)CC1)c1csc2cncnc12` [Example 62, Thieno[3,2-d]pyrimidine-7-carboxylic acid [5-chloro-2-(4-hydroxy-cyclohexyloxy)-phenyl]-amide], the IC50 worked out at 126 nM.
On the same count and under the same terms, the value for `CN(C)CC1CCN(c2ccc(Cl)cc2NC(=O)c2cnn3cc(O)cnc23)CC1` [Example 37, 6-Hydroxy-pyrazolo[1,5-alpha]pyrimidine-3-carboxylic acid [5-chloro-2-(4-dimethyl-aminomethyl-piperidin-1-yl)-phenyl]-amide] was 307 nM.
For `O=C(Nc1cc(Cl)ccc1N1CCC(CO)CC1)c1csc2cncnc12` [Example 49, Thieno[3,2-d]pyrimidine-7-carboxylic acid [5-chloro-2-(4-hydroxymethyl-piperidin-1-yl)-phenyl]-amide], the IC50 came out at 700 nM.
Still for that read-out and setting: the value for “2-(cis-2-amino-cyclohexylamino)-thieno[3,2-d]pyrimidine-7-carboxylic acid (2,4-dimethoxy-phenyl)-amide [Example 26]” was 463 nM.

Another test deals with IRAK-4 (Homo sapiens (Human), UniProt Q9NWZ3). The experiment in a line: In vitro IRAK-4 kinase assay. Type of test: biochemical. The settings on record: purified recombinant IRAK-4, 50 uM ATP, 33P peptide phosphorylation. The procedure, abridged:
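Recombinant IRAK-4 or IRAK-1 incubated with 250 uM synthetic peptide in MOPS pH7.2 kinase buffer with 50 uM ATP, 20 mM MgCl2 and γ-33P ATP for the indicated time. Phosphorylated peptide captured on phosphocellulose, washed with phosphoric acid, quantified by scintillation counting.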
Take `COc1cc2ncccc2cc1NC(=O)c1csc2cnc(N(C)CCO)nc12` [Example 24]: the half-maximal inhibitory concentration (IC50) was 29 nM.
Same read-out and setting: with `O=C(Nc1cc2cccnc2cc1O[C@@H]1CC[C@@H](O)C1)c1csc2cncnc12` (stereo in doubt) [hydrochloride] the figure was 15 nM; with `O=C(Nc1cc(Cl)ccc1O[C@H]1CC[C@H](O)CC1)c1csc2cncnc12` [Example 81, Thieno[3,2-d]pyrimidine-7-carboxylic acid [5-chloro-2-(4-hydroxy-cyclohexyloxy)-phenyl]-amide], 338 nM; with `O=C(Nc1cc2cccnc2cc1O[C@H]1CC[C@H](O)CC1)c1csc2cncnc12`, 11 nM.
On the same count and under the same terms, with `O=C(Nc1cc(Cl)ccc1O[C@H]1CC[C@@H](O)CC1)c1csc2cncnc12` [Example 62, Thieno[3,2-d]pyrimidine-7-carboxylic acid [5-chloro-2-(4-hydroxy-cyclohexyloxy)-phenyl]-amide] the figure was 149 nM.
Regarding `CN(C)CC1CCN(c2ccc(Cl)cc2NC(=O)c2cnn3cc(O)cnc23)CC1` [Example 37, 6-Hydroxy-pyrazolo[1,5-alpha]pyrimidine-3-carboxylic acid [5-chloro-2-(4-dimethyl-aminomethyl-piperidin-1-yl)-phenyl]-amide], the IC50 turned out to be 53 nM.
Consider `O=C(Nc1cc(Cl)ccc1N1CCC(CO)CC1)c1csc2cncnc12` [Example 49, Thieno[3,2-d]pyrimidine-7-carboxylic acid [5-chloro-2-(4-hydroxymethyl-piperidin-1-yl)-phenyl]-amide], for which the 50% inhibitory concentration (IC50) was 100 nM.
For “2-(cis-2-Amino-cyclohexylamino)-thieno[3,2-d]pyrimidine-7-carboxylic acid quinolin-8-ylamide [Example 22]”, the IC50 is 28 nM.
As to `O=C(Nc1cc(CO)ccc1N1CCCCC1)c1cnn2cccnc12` [Example 66, Pyrazolo[1,5-alpha]pyrimidine-3-carboxylic acid (5-hydroxymethyl-2-piperidin-1-yl-phenyl)-amide], the half-inhibitory concentration (IC50) was 199 nM.
Still for that read-out and setting: the value for `COc1ccc(Cl)cc1NC(=O)c1csc2cnc(N(C)CCO)nc12` [Example 157, 2-[(2-Hydroxy-ethyl)-methyl-amino]-thieno[3,2-d]pyrimidine-7-carboxylic acid (5-chloro-2-methoxy-phenyl)-amide] was 4130 nM; that for `O=C(Nc1cc2ccccc2cc1OC1CCC(O)C1)c1cnn2cccnc12` (stereo not drawn) [Example 65, Pyrazolo[1,5-alpha]pyrimidine-3-carboxylic acid [3-(3-hydroxy-cyclopentyloxy)-naphthalen-2-yl]-amide] was 177 nM; that for `O=C(Nc1cc(Cl)ccc1OC1CCNCC1)c1cnn2cccnc12` [Example 92, Pyrazolo[1,5-alpha]pyrimidine-3-carboxylic acid [5-chloro-2-(piperidin-4-yloxy)-phenyl]-amide hydrochloride] was 476 nM.
`O=C(Nc1cc(Cl)ccc1N1CCC(CO)CC1)c1cnn2cccnc12` [Example 42, Pyrazolo[1,5-alpha]pyrimidine-3-carboxylic acid [5-chloro-2-(4-hydroxymethyl-piperidin-1-yl)-phenyl]-amide]: the half-inhibitory concentration (IC50) came to 72 nM.
With `COc1ccc(CCCO)cc1NC(=O)c1cnn2cccnc12` [Example 176, Pyrazolo[1,5-alpha]pyrimidine-3-carboxylic acid [5-(3-hydroxy-propyl)-2-methoxy-phenyl]-amide], the IC50 turned out to be 8360 nM.
Still for that read-out and setting: with `COc1cc(C(=O)NCCO)ccc1NC(=O)c1csc2cncnc12` [Example 122, Thieno[3,2-d]pyrimidine-7-carboxylic acid [4-(2-hydroxy-ethylcarbamoyl)-2-methoxy-phenyl]-amide] the figure was 1620 nM; with `NC1CCN(c2ccc(Cl)cc2NC(=O)c2cnn3cccnc23)CC1` [Example 70, Pyrazolo[1,{tildeover (5)}-alpha] pyrimidine-3-carboxylic acid [2-(4-amino-piperidin-1-yl)-5-chloro-phenyl]-amide], 251 nM.
With `COc1cc2[nH]ncc2cc1NC(=O)c1cnn2cccnc12` [Example 69, Pyrazolo[1,5-alpha]pyrimidine-3-carboxylic acid (6-methoxy-1H-indazol-5-yl)-amide], the half-inhibitory concentration (IC50) was 231 nM.
As to `COc1ccc(NC(=O)c2cnn3cccnc23)c(OC)c1` [Example 158, Pyrazolo[1,5-alpha]pyrimidine-3-carboxylic acid (2,4-dimethoxy-phenyl)-amide], the IC50 was found to be 4170 nM.
Take `O=C(Nc1cc(Cl)ccc1-c1ccc(CO)cc1)c1cnn2cccnc12` [Example 68, Pyrazolo[1,5-alpha]pyrimidine-3-carboxylic acid (4-chloro-4′-hydroxymethyl-biphenyl-2-yl)-amide]: the half-inhibitory concentration (IC50) came to 218 nM.
Same read-out and setting: with `CC(C)Oc1ccc(Cl)cc1NC(=O)c1csc2cncnc12` [Example 74, Thieno[3,2-d]pyrimidine-7-carboxylic acid (5-chloro-2-isopropoxy-phenyl)-amide] the figure was 290 nM.
Take `COc1c(C)cc(C)cc1NC(=O)c1cnn2cccnc12` [Example 168, Pyrazolo[1,5-alpha]pyrimidine-3-carboxylic acid (2-methoxy-3,5-dimethyl-phenyl)-amide]: the half-maximal inhibitory concentration (IC50) turned out to be 6520 nM.
As to `COc1ccccc1NC(=O)c1cnn2cccnc12` [Example 171, Pyrazolo[1,5-alpha]pyrimidine-3-carboxylic acid (2-methoxy-phenyl)-amide], the half-inhibitory concentration (IC50) was determined as 7340 nM.
On to `COc1cc(C(N)=O)ccc1NC(=O)c1cnn2cccnc12` [Example 134, Pyrazolo[1,5-alpha]pyrimidine-3-carboxylic acid (4-carbamoyl-2-methoxy-phenyl)-amide], for which the concentration for half-maximal inhibition (IC50) came out at 2260 nM.
As for `COc1cc2cc[nH]c2cc1NC(=O)c1csc2cncnc12` [Example 102, Thieno[3,2-d]pyrimidine-7-carboxylic acid (5-methoxy-1H-indol-6-yl)-amide], the IC50 turned out to be 596 nM.
As for `O=C(Nc1ccccc1-c1ccccc1)c1cnn2cccnc12` [Example 116, Pyrazolo[1,5-alpha]pyrimidine-3-carboxylic acid biphenyl-2-ylamide], the IC50 was found to be 1220 nM.
Still for that read-out and setting: with `O=C(Nc1cc(Cl)ccc1CCCCO)c1cnn2cccnc12` [Example 145, Pyrazolo[1,5-alpha]pyrimidine-3-carboxylic acid [5-chloro-2-(4-hydroxy-butyl)-phenyl]-amide] the figure was 2950 nM.
On to `O=C(Nc1nc2ccccc2n1CCCO)c1csc2cncnc12` [Example 136, Thieno[3,2-d]pyrimidine-7-carboxylic acid [1-(3-hydroxy-propyl)-1H-benzoimidazol-2-yl]-amide], for which the IC50 stood at 2310 nM.
Same read-out and setting: the value for `COc1ccc(Cl)cc1NC(=O)c1csc2cccnc12` [Example 150, Thieno[3,2-beta]pyridine-3-carboxylic acid (5-chloro-2-methoxy-phenyl)-amide] was 3460 nM; that for `Cc1ncoc1COc1ccc(Cl)cc1NC(=O)c1csc2cncnc12` [Example 115, Thieno[3,2-d]pyrimidine-7-carboxylic acid [5-chloro-2-(4-methyl-oxazol-5-ylmethoxy)-phenyl]-amide] was 1050 nM; that for `NC(=O)c1cnc2c(C(=O)Nc3cc(Cl)ccc3O[C@H]3CC[C@@H](O)CC3)cnn2c1` [Example 67, Pyrazolo[1,5-alpha]pyrimidine-3,6-dicarboxylic acid 6-amide 3-{[5-chloro-2-(4-hydroxy-cyclohexyloxy)-phenyl]-amide}] was 203 nM.
Still for that read-out and setting: the value for `O=C(Nc1cc(Cl)ccc1OC[C@H](O)CO)c1cnn2cccnc12` [Example 163, Pyrazolo[1,5-alpha]pyrimidine-3-carboxylic acid [5-chloro-2-(2,3-dihydroxy-propoxy)-phenyl]-amide] was 4660 nM; that for `Cc1ncoc1COc1ccc(Cl)cc1NC(=O)c1cnn2cccnc12` [Example 121, Pyrazolo[1,5-alpha]pyrimidine-3-carboxylic acid [5-chloro-2-(4-methyl-oxazol-5-ylmethoxy)-phenyl]-amide] was 1550 nM; that for `NC1CCC(Oc2ccc(Cl)cc2NC(=O)c2csc3cncnc23)CC1` (stereo not shown) [Example 118, Thieno[3,2-d]pyrimidine-7-carboxylic acid [2-(4-amino-cyclohexyloxy)-5-chloro-phenyl]-amide] was 1470 nM.
Turning to `O=C(Nc1cc(Cl)ccc1N1CCC(O)CC1)c1cnn2cccnc12` [Example 60, Pyrazolo[1,5-alpha]pyrimidine-3-carboxylic acid [5-chloro-2-(4-hydroxy-piperidin-1-yl)-phenyl]-amide], the half-inhibitory concentration (IC50) is 136 nM.
The same measure, in the same setting: with `COc1cc(C(=O)NCCO)ccc1NC(=O)c1cnn2cccnc12` [Example 146, Pyrazolo[1,5-alpha]pyrimidine-3-carboxylic acid [4-(2-hydroxy-ethylcarbamoyl)-2-methoxy-phenyl]-amide] the figure was 2960 nM.
